Source: patent publication US20190062305A1, “PYRIDYL OR PYRAZINYL COMPOUNDS CARRYING A METHYL-BOUND ALPHA-AMINO ACID AMIDE GROUP” (ABBVIE DEUTSCHLAND GMBH & CO. KG, priority 2015, published 2019)
Structures can show the parent of a compound that is named as a salt.

Tests used:
[1] = Metabolic stability in human liver microsomes, unbound intrinsic clearance (Cl int/fu mic); type: in vitro ADME; conditions: human, liver microsomes, pH 7.4, human liver microsomes 0.25 mg/mL, 0.5 μM compound, NADPH, read-out: Cl int, mic unb. (h) [l/h/kg] (unbound intrinsic clearance, human)
In short: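 Compound (0.5 µM) was incubated with human liver microsomes (0.25 mg/mL) in pH 7.4 phosphate buffer at 37 °C with 1.0 mM NADPH, sampling from 0–30 min. Depletion was followed by LC-MS/MS, and CLint was derived from first-order t1/2 per mg protein. Microsomal unbound fraction came from 4 h equilibrium dialysis at 37 °C, giving CLint/fu mic.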

[2] = target: T1, 5-HT2C receptor (Homo sapiens, UniProt P28335); experiment: Human 5-HT2C functional assay (beta-arrestin2 recruitment, U2OS_HTR2C_β-Arrestin cells); type: cell-based; conditions: for EC50: beta-arrestin2 recruitment, U2OS_HTR2C_β-Arrestin cells, 1.5 h incubation, read-out: EC50 5-HT2C (potency in functional assay); for Emax: relative efficacy vs response to 10 μM 5-HT or maximal 5-HT effect (100%)
T1 construct: host or cells: U2OS
In short: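 U2OS cells expressing HTR2C with β-galactosidase complementation, switched to 1% serum medium 24 h post-plating, were treated next day with compound for 1.5 h; chemiluminescence read. Response expressed as % of 10 µM 5-HT or maximal 5-HT effect; EC50 from 4-parameter variable-slope fit.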

T1 sequence (P28335 33-458): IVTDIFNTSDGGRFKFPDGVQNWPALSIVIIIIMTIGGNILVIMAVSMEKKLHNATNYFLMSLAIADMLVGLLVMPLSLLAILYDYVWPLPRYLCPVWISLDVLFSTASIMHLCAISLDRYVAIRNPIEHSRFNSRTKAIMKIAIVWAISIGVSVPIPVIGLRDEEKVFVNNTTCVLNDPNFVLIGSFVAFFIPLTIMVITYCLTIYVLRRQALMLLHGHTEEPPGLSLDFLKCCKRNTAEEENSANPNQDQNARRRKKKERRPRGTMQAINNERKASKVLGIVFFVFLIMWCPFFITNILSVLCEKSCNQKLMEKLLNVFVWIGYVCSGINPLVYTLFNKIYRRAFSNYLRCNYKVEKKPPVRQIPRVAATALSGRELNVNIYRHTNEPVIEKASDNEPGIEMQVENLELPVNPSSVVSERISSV
T1 sequence (P32121 whole entry partner): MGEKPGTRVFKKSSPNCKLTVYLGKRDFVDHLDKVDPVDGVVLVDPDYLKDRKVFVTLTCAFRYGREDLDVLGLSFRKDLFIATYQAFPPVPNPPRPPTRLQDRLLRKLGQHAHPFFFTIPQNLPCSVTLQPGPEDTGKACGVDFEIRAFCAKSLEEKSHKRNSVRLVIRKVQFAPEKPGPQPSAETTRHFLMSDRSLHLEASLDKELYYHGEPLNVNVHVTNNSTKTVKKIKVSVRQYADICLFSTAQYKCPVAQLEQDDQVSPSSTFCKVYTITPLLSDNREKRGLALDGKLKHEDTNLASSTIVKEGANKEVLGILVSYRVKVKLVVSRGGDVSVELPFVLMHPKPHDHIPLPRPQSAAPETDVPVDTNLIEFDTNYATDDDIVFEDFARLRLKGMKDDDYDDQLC

COc1nc(NCC2(C(F)(F)F)CC2)c(F)cc1CNC(=O)[C@@H]1CCCN1 [Example 152, (2S)—N-[[5-Fluoro-2-methoxy-6-[[1-(trifluoromethyl)cyclopropyl]methylamino]-3-pyridyl]methyl]pyrrolidine-2-carboxamide; 2,2,2-trifluoroacetic Acid]
CLint scaled at 0.5 μM [1]: < 5 L/h/kg
EC50 [2]: < 20 nM
Emax [2]: > 70%

COc1nc(OC2CCC(F)(F)C2)c(F)cc1CNC(=O)[C@@H]1CCCN1 (stereo partly drawn) [Example 24, (2S)—N-[[6-(3,3-Difluorocyclopentoxy)-5-fluoro-2-methoxy-3-pyridyl]methyl]-pyrrolidine-2-carboxamide; Fumaric Acid]
CLint scaled at 0.5 μM [1]: < 5 L/h/kg
EC50 [2]: < 20 nM
Emax [2]: > 70%

COc1nc(OCC2CC(F)(F)C2)c(F)cc1CNC(=O)[C@@H]1CCCN1C [Example 92, (2S)—N-[[6-[(3,3-Difluorocyclobutyl)methoxy]-5-fluoro-2-methoxy-3-pyridyl]-methyl]-1-methyl-pyrrolidine-2-carboxamide Hydrochloride]
CLint scaled at 0.5 μM [1]: < 5 L/h/kg
EC50 [2]: < 20 nM
Emax [2]: > 70%

COc1nc(N2CC(Cc3ccccc3)C2)c(F)cc1CNC(=O)[C@@H]1CCCN1 [Example 194, (2S)—N-[[6-(3-Benzylazetidin-1-yl)-5-fluoro-2-methoxy-3-pyridyl]methyl]-pyrrolidine-2-carboxamide]
CLint scaled at 0.5 μM [1]: 50 to 500 L/h/kg
EC50 [2]: 20 to 200 nM
Emax [2]: > 70%

COc1nc(OC2CC(F)(F)C2)c(F)cc1CNC(=O)[C@H](C)N1CCC1 [Example 101, (2S)-2-(Azetidin-1-yl)-N-[[6-(3,3-difluorocyclobutoxy)-5-fluoro-2-methoxy-3-pyridyl]methyl]propanamide Hydrochloride]
CLint scaled at 0.5 μM [1]: < 5 L/h/kg
EC50 [2]: < 20 nM
Emax [2]: > 70%

COc1nc(N(C)C2CC2)c(F)cc1CNC(=O)[C@@H]1CCCN1 [Example 147, (2S)—N-[[6-[N-Cyclopropyl-N-methyl-amino]-5-fluoro-2-methoxy-3-pyridyl]methyl]pyrrolidine-2-carboxamide; 2,2,2-trifluoroacetic Acid]
CLint scaled at 0.5 μM [1]: 5 to 50 L/h/kg
EC50 [2]: 200 to 1000 nM
Emax [2]: 50 to 70%

COc1nc(OCC(C)CC(F)(F)F)c(F)cc1CNC(=O)[C@@H]1CCCN1 (stereo partly drawn) [Example 49, (2S)—N-[[5-Fluoro-2-methoxy-6-(4,4,4-trifluoro-2-methyl-butoxy)-3-pyridyl]-methyl]pyrrolidine-2-carboxamide; Succinic Acid]
CLint scaled at 0.5 μM [1]: 5 to 50 L/h/kg
EC50 [2]: < 20 nM
Emax [2]: > 70%

COc1nc(N2CCC(Oc3ccccc3)CC2)c(F)cc1CNC(=O)[C@@H]1CCCN1 [Example 195, (2S)—N-[[5-Fluoro-2-methoxy-6-(4-phenoxy-1-piperidyl)-3-pyridyl]methyl]-pyrrolidine-2-carboxamide; 2,2,2-trifluoroacetic Acid]
CLint scaled at 0.5 μM [1]: 50 to 500 L/h/kg
EC50 [2]: 20 to 200 nM
Emax [2]: > 70%

COc1nc(N(C)CCc2ccccc2)c(F)cc1CNC(=O)[C@@H]1CCCN1 [Example 137, (2S)—N-[[5-Fluoro-2-methoxy-6-[methyl(phenethyl)amino]-3-pyridyl]methyl]-pyrrolidine-2-carboxamide Hydrochloride]
CLint scaled at 0.5 μM [1]: 50 to 500 L/h/kg
EC50 [2]: 200 to 1000 nM
Emax [2]: > 70%

COc1nc(N2CCC(F)CC2)c(F)cc1CNC(=O)[C@@H]1CCCN1 [Example 160, (2S)—N-[[5-Fluoro-6-(4-fluoro-1-piperidyl)-2-methoxy-3-pyridyl]methyl]-pyrrolidine-2-carboxamide; 2,2,2-trifluoroacetic Acid]
CLint scaled at 0.5 μM [1]: < 5 L/h/kg
EC50 [2]: 20 to 200 nM
Emax [2]: 50 to 70%

COc1nc(N2CCC(F)(F)C2)c(F)cc1CNC(=O)[C@@H]1CCCN1 [Example 164, (2S)—N-[[6-(3,3-Difluoropyrrolidin-1-yl)-5-fluoro-2-methoxy-3-pyridyl]methyl]pyrrolidine-2-carboxamide; 2,2,2-trifluoroacetic Acid]
CLint scaled at 0.5 μM [1]: < 5 L/h/kg
EC50 [2]: 20 to 200 nM
Emax [2]: > 70%

COc1nc(NCc2ccc(F)cc2)c(F)cc1CNC(=O)[C@@H]1CCCN1 [Example 177, (2S)—N-[[5-Fluoro-6-[(4-fluorophenyl)methylamino]-2-methoxy-3-pyridyl]methyl]-pyrrolidine-2-carboxamide; 2,2,2-trifluoroacetic Acid]
CLint scaled at 0.5 μM [1]: < 5 L/h/kg
EC50 [2]: 20 to 200 nM
Emax [2]: > 70%

COc1nc(N2CCC(F)(F)C(C(F)F)C2)c(F)cc1CNC(=O)[C@@H]1CCCN1 (stereo partly drawn) [Example 190, (2S)—N-[[6-[3-(Difluoromethyl)-4,4-difluoro-1-piperidyl]-5-fluoro-2-methoxy-3-pyridyl]methyl]pyrrolidine-2-carboxamide Hydrochloride]
CLint scaled at 0.5 μM [1]: < 5 L/h/kg
EC50 [2]: < 20 nM
Emax [2]: > 70%

COc1nc(OCC2CCC(C(F)(F)F)CC2)c(F)cc1CNC(=O)[C@@H]1CCCN1 (stereo partly drawn) [Example 14, (2S)—N-[[5-Fluoro-2-methoxy-6-[[4-(trifluoromethyl)cyclohexyl]methoxy]-3-pyridyl]methyl]pyrrolidine-2-carboxamide; Fumaric Acid]
CLint scaled at 0.5 μM [1]: 50 to 500 L/h/kg
EC50 [2]: < 20 nM
Emax [2]: > 70%

COc1nc(N2CCCC(F)(F)C2)c(F)cc1CNC(=O)[C@@H]1CCCN1 [Example 156, (2S)—N-[[6-(3,3-Difluoro-1-piperidyl)-5-fluoro-2-methoxy-3-pyridyl]methyl]-pyrrolidine-2-carboxamide; 2,2,2-trifluoroacetic Acid]
CLint scaled at 0.5 μM [1]: < 5 L/h/kg
EC50 [2]: 20 to 200 nM
Emax [2]: 50 to 70%

COc1nc(O[C@H]2CC[C@H](C(F)(F)F)CC2)c(F)cc1CNC(=O)[C@@H]1CCCN1 [Example 11, (2S)—N-[[5-Fluoro-2-methoxy-6-[trans-4-(trifluoromethyl)cyclohexoxy]-3-pyridyl]methyl]pyrrolidine-2-carboxamide; Fumaric Acid]
CLint scaled at 0.5 μM [1]: 5 to 50 L/h/kg
EC50 [2]: < 20 nM
Emax [2]: > 70%

COc1nc(OC2CC3C(C2)C3(F)F)c(F)cc1CNC(=O)[C@@H]1CCCN1 (stereo partly drawn) [Example 54, (2S)—N-[[6-[(6,6-Difluoro-3-bicyclo[3.1.0]hexanyl)oxy]-5-fluoro-2-methoxy-3-pyridyl]methyl]pyrrolidine-2-carboxamide 2,2,2-trifluoroacetic Acid]
CLint scaled at 0.5 μM [1]: < 5 L/h/kg
EC50 [2]: < 20 nM
Emax [2]: > 70%

COc1nc(C2=CCC(C(F)(F)F)CC2)c(F)cc1CNC(=O)[C@@H]1CCCN1 (stereo partly drawn) [Example 140, (2S)—N-[[5-Fluoro-2-methoxy-6-[4-(trifluoromethyl)cyclohexen-1-yl]-3-pyridyl]methyl]pyrrolidine-2-carboxamide]
CLint scaled at 0.5 μM [1]: 5 to 50 L/h/kg
EC50 [2]: < 20 nM
Emax [2]: > 70%

COc1nc(N2CC3C(C2)C3(F)F)c(F)cc1CNC(=O)[C@@H]1CCCN1 (stereo partly drawn) [Example 183, (2S)—N-[[6-(6,6-Difluoro-3-azabicyclo[3.1.0]hexan-3-yl)-5-fluoro-2-methoxy-3-pyridyl]methyl]pyrrolidine-2-carboxamide]
CLint scaled at 0.5 μM [1]: 5 to 50 L/h/kg
EC50 [2]: 20 to 200 nM
Emax [2]: > 70%

COc1nc(OC2CCC(F)(F)CC2)c(F)cc1CNC(=O)[C@@H]1C[C@@H](F)CN1 [Example 34, (2S,4R)—N-[[6-(4,4-Difluorocyclohexoxy)-5-fluoro-2-methoxy-3-pyridyl]methyl]-4-fluoro-pyrrolidine-2-carboxamide; Fumaric Acid]
CLint scaled at 0.5 μM [1]: < 5 L/h/kg
EC50 [2]: < 20 nM
Emax [2]: > 70%
